Source: PubChem BioAssay AID330 (DTP/NCI, 2004)
Several values for one entry are separate records, joined by “and”; a condition that tells them apart may be missing. Identical values can stand only once. Inconclusive results and toxic doses are left out. How the source made its calls: active means survival T/C of 150% or more; inactive means T/C below 125% in these data.

Tested on: P388 leukemia ip, CD2F1 mice, survival T/C
Assay: NCI In Vivo Anticancer Drug Screen. Data for tumor model P388 Leukemia (intraperitoneal) in CD2F1 (CDF1) mice
Conditions: endpoint: median survival time, higher = longer survival
Procedure, shortened: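 Mice carrying the transplanted tumor received test compound or vehicle. Survival was recorded in each group, and the value is the treated-group measurement divided by that of the vehicle-treated control group.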

[1] = dose: 50.0 mg/kg/injection, schedule: Q01DX009 (ip), vehicle: saline with Tween-80
[2] = dose: 60.0 mg/kg/injection, schedule: Q01DX005 (ip), vehicle: Klucel (hydroxypropylcellulose) (HPC)
[3] = dose: 120.0 mg/kg/injection, schedule: Q01DX005 (ip), vehicle: Klucel (hydroxypropylcellulose) (HPC)
[4] = dose: 60.0 mg/kg/injection, schedule: Q01DX005 (ip), vehicle: saline with Tween-80
[5] = dose: 100.0 mg/kg/injection, schedule: Q04DX003 (ip), vehicle: saline with Tween-80
[6] = dose: 200.0 mg/kg/injection, schedule: Q04DX003 (ip), vehicle: saline with Tween-80
[7] = dose: 400.0 mg/kg/injection, schedule: Q04DX003 (ip), vehicle: saline with Tween-80
[8] = dose: 50.0 mg/kg/injection, schedule: Q01DX005 (ip), vehicle: saline with Tween-80
[9] = dose: 100.0 mg/kg/injection, schedule: Q01DX005 (ip), vehicle: saline with Tween-80
[10] = dose: 200.0 mg/kg/injection, schedule: Q01DX005 (ip), vehicle: saline with Tween-80
[11] = dose: 60.0 mg/kg/injection, schedule: Q01DX005 (ip), vehicle: saline
[12] = dose: 120.0 mg/kg/injection, schedule: Q01DX005 (ip), vehicle: saline
[13] = dose: 100.0 mg/kg/injection, schedule: Q01DX009 (ip), vehicle: Klucel (hydroxypropylcellulose) (HPC)
[14] = dose: 120.0 mg/kg/injection, schedule: Q01DX005 (ip), vehicle: saline with Tween-80
[15] = dose: 240.0 mg/kg/injection, schedule: Q01DX005 (ip), vehicle: saline with Tween-80
[16] = dose: 12.5 mg/kg/injection, schedule: Q01DX009 (ip), vehicle: saline with Tween-80
[17] = dose: 25.0 mg/kg/injection, schedule: Q01DX009 (ip), vehicle: saline with Tween-80

Measured: T/C

O=C1CC(c2ccc(Cl)cc2)C(c2ccc(Cl)cc2)C1C(=O)OC1CCCCC1 (centres undefined)
inactive: dose: 1.56 mg/kg/injection, schedule: Q01DX001 (ip), vehicle: Klucel (hydroxypropylcellulose) (HPC) 110 % of control | dose: 3.13 mg/kg/injection, schedule: Q01DX001 (ip), vehicle: Klucel (hydroxypropylcellulose) (HPC) 107 % of control | dose: 6.25 mg/kg/injection, schedule: Q01DX001 (ip), vehicle: Klucel (hydroxypropylcellulose) (HPC) 107 % of control and 89 % of control

COc1ccccc1[N+]([O-])=NC#N
inactive: dose: 6.25 mg/kg/injection, schedule: Q04DX003 (ip), vehicle: Klucel (hydroxypropylcellulose) (HPC) 107 % of control | dose: 12.5 mg/kg/injection, schedule: Q04DX003 (ip), vehicle: Klucel (hydroxypropylcellulose) (HPC) 111 % of control | dose: 25.0 mg/kg/injection, schedule: Q04DX003 (ip), vehicle: Klucel (hydroxypropylcellulose) (HPC) 99 % of control

COC1(OC)C2C=CC1C1CC/C=C\CCC12 (centres undefined)
inactive: [1] 106 % of control | dose: 100.0 mg/kg/injection, schedule: Q01DX009 (ip), vehicle: saline with Tween-80 100 % of control | dose: 200.0 mg/kg/injection, schedule: Q01DX009 (ip), vehicle: saline with Tween-80 103 % of control

Cc1cc(NCCc2ccccc2)cc(=O)n1CCc1ccccc1
inactive: [2] 97 % of control | [3] 100 % of control | dose: 240.0 mg/kg/injection, schedule: Q01DX005 (ip), vehicle: Klucel (hydroxypropylcellulose) (HPC) 94 % of control

CCOc1ccccc1NC1=C(Cl)C(=O)c2ccccc2C1=O
inactive: dose: 7.5 mg/kg/injection, schedule: Q01DX005 (ip), vehicle: saline with Tween-80 100 % of control | dose: 15.0 mg/kg/injection, schedule: Q01DX005 (ip), vehicle: saline with Tween-80 94 % of control | dose: 30.0 mg/kg/injection, schedule: Q01DX005 (ip), vehicle: saline with Tween-80 97 % of control | [4] 103 % of control

CCC(c1ccccc1)(c1ccccc1)c1ccccc1
inactive: [5] 98 % of control | [6] 100 % of control | [7] 94 % of control

CCCCCCC(=O)/C=C/c1ccc(F)cc1
inactive: [8] 101 % of control | [9] 106 % of control | [10] 100 % of control

Clc1c2ccccc2nc2ccccc12
inactive: [8] 98 % of control | [9] 91 % of control | [10] 98 % of control

COc1ccc(C(=O)C2C(=O)C(=O)OC2C2OC(=O)C(=O)C2C(=O)c2ccc(OC)cc2)cc1 (centres undefined)
inactive: dose: 30.0 mg/kg/injection, schedule: Q01DX005 (ip), vehicle: saline 100 % of control | [11] 94 % of control and 95 % of control | [12] 93 % of control

[O-]c1on[n+](-c2ccccc2-n2cccn2)c1-c1ccccc1
inactive: dose: 100.0 mg/kg/injection, schedule: Q01DX001 (ip), vehicle: saline with Tween-80 90 % of control | dose: 200.0 mg/kg/injection, schedule: Q01DX001 (ip), vehicle: saline with Tween-80 91 % of control | dose: 400.0 mg/kg/injection, schedule: Q01DX001 (ip), vehicle: saline with Tween-80 90 % of control

O=c1oc(-c2cccc(F)c2)ns1
inactive: [13] 115 % of control | dose: 200.0 mg/kg/injection, schedule: Q01DX009 (ip), vehicle: Klucel (hydroxypropylcellulose) (HPC) 116 % of control | dose: 400.0 mg/kg/injection, schedule: Q01DX009 (ip), vehicle: Klucel (hydroxypropylcellulose) (HPC) 115 % of control

OCC1OC(n2c(Cl)nc3ccccc32)C(O)C1O (centres undefined)
inactive: [11] 100 % of control | [12] 103 % of control | dose: 240.0 mg/kg/injection, schedule: Q01DX005 (ip), vehicle: saline 98 % of control

O=C(Nc1ccc(S(=O)(=O)F)cc1)Oc1ccc([N+](=O)[O-])cc1
inactive: [4] 121 % of control | [14] 101 % of control | [15] 86 % of control

c1ccc(CN2CCC(N3CNc4ccccc43)CC2)cc1
inactive: dose: 25.0 mg/kg/injection, schedule: Q04DX003 (ip), vehicle: saline with Tween-80 109 % of control | dose: 50.0 mg/kg/injection, schedule: Q04DX003 (ip), vehicle: saline with Tween-80 114 % of control | [5] 88 % of control

COc1ccc2c(c1)nnn2C(=O)/C=C/c1ccccc1
inactive: [16] 94 % of control | [17] 107 % of control | [1] 101 % of control and 104 % of control

CN(C)P1(=O)OCC(C(C)(C)C)CN1C (centres undefined)
inactive: dose: 50.0 mg/kg/injection, schedule: Q01DX009 (ip), vehicle: Klucel (hydroxypropylcellulose) (HPC) 100 % of control | [13] 107 % of control

CCN(CC)CCNc1ccc(C)c2oc3ccc(O)cc3c(=O)c12
inactive: dose: 12.5 mg/kg/injection, schedule: Q01DX005 (ip), vehicle: distilled water + Tween-80 106 % of control | dose: 25.0 mg/kg/injection, schedule: Q01DX005 (ip), vehicle: distilled water + Tween-80 106 % of control | dose: 50.0 mg/kg/injection, schedule: Q01DX005 (ip), vehicle: distilled water + Tween-80 117 % of control

NNC(=O)C(N)Cc1ccc(O)cc1 (centres undefined)
inactive: dose: 50.0 mg/kg/injection, schedule: Q01DX005 (ip), vehicle: saline 100 % of control | dose: 100.0 mg/kg/injection, schedule: Q01DX005 (ip), vehicle: saline 103 % of control | dose: 200.0 mg/kg/injection, schedule: Q01DX005 (ip), vehicle: saline 115 % of control

Cc1ccc(C)c(C[n+]2ccccc2C2(C)OCCO2)c1
inactive: [8] 101 % of control | [9] 103 % of control | [10] 100 % of control

O=C(/C=C/c1ccc(OCc2ccccc2)cc1)c1cccc(Cl)c1
inactive: dose: 6.25 mg/kg/injection, schedule: Q01DX009 (ip), vehicle: saline with Tween-80 95 % of control | [16] 95 % of control | [17] 93 % of control

O=C1C=C2CCCCCCCC(C1)C2 (centres undefined)
inactive: dose: 50.0 mg/kg/injection, schedule: Q01DX005 (ip), vehicle: Klucel (hydroxypropylcellulose) (HPC) 113 % of control | dose: 100.0 mg/kg/injection, schedule: Q01DX005 (ip), vehicle: Klucel (hydroxypropylcellulose) (HPC) 108 % of control | dose: 200.0 mg/kg/injection, schedule: Q01DX005 (ip), vehicle: Klucel (hydroxypropylcellulose) (HPC) 110 % of control

CC(C)=CCOc1cc(O)c(CC2=C(O)C(C)(C)C(=O)C(C(=O)C(C)C)=C2O)c(O)c1C(=O)c1ccccc1
inactive: dose: 0.83 mg/kg/injection, schedule: Q01DX005 (ip), vehicle: DMSO 110 % of control | dose: 1.65 mg/kg/injection, schedule: Q01DX005 (ip), vehicle: DMSO 103 % of control | dose: 3.3 mg/kg/injection, schedule: Q01DX005 (ip), vehicle: DMSO 103 % of control | dose: 6.6 mg/kg/injection, schedule: Q01DX005 (ip), vehicle: DMSO 88 % of control

COCC(O)Cn1ccnc1N=Nc1ccccc1 (centres undefined)
inactive: [4] 103 % of control | [14] 102 % of control

COc1ccc(/C=C/C(=O)c2ccc(OC)c(OC)c2)cc1OC
inactive: [5] 90 % of control | [6] 95 % of control | [7] 95 % of control

Cn1c(C2CCC(=O)N2Cc2ccccc2)n[nH]c1=S (centres undefined)
inactive: [4] 101 % of control | [14] 101 % of control | [15] 100 % of control

COC(=O)c1nc(N)nc(C(=O)OC)c1C(=O)c1ccc(Cl)cc1
inactive: [2] 103 % of control | [3] 101 % of control

CSc1ccc(OC(=O)Nc2ccc(Cl)c(Cl)c2)c(C)c1
inactive: dose: 50.0 mg/kg/injection, schedule: Q01DX009 (ip), vehicle: saline + alcohol 87 % of control | dose: 100.0 mg/kg/injection, schedule: Q01DX009 (ip), vehicle: saline + alcohol 87 % of control | dose: 200.0 mg/kg/injection, schedule: Q01DX009 (ip), vehicle: saline + alcohol 95 % of control

O=C(CCc1cc2[nH]c1c(-c1ccccc1)c1nc(c(-c3ccccc3)c3ccc([nH]3)c(-c3ccccc3)c3nc(c2-c2ccccc2)C=C3)C=C1)NCCCn1ccnc1
inactive: dose: 50.0 mg/kg/injection, schedule: Q01DX001 (ip), vehicle: Klucel (hydroxypropylcellulose) (HPC) 99 % of control | dose: 100.0 mg/kg/injection, schedule: Q01DX001 (ip), vehicle: Klucel (hydroxypropylcellulose) (HPC) 91 % of control | dose: 200.0 mg/kg/injection, schedule: Q01DX001 (ip), vehicle: Klucel (hydroxypropylcellulose) (HPC) 91 % of control | dose: 400.0 mg/kg/injection, schedule: Q01DX001 (ip), vehicle: Klucel (hydroxypropylcellulose) (HPC) 96 % of control
